#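 Tested at 5 concentrations; 48 h exposure; 96-well plates; endpoints linearly interpolated, else capped at highest concentration. TGI: total growth inhibition.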
# Columns and labels:
# Experiment in all cases: NCI tumour cell line growth inhibition, 48 h
# [1] = tested on: KM12 colon
# [2] = tested on: TK-10 renal
# [3] = tested on: RXF 393 renal
# [4] = tested on: UACC-257 melanoma
# [5] = tested on: OVCAR-4 ovarian
# [6] = tested on: CAKI-1 renal
# [7] = tested on: DU-145 prostate
# [8] = tested on: MDA-MB-435
Compound,TGI [1],TGI [2],TGI [3],TGI [4],TGI [5],TGI [6],TGI [7],TGI [8]
Cc1ccnc2[nH]c(-c3cccc(Cl)c3)cc(=O)c12,> 47.8 µM,> 100 µM,> 100 µM,> 100 µM,> 100 µM,> 47.8 µM,> 100 µM,
O=C1Sc2ccc(Br)cc2C(=O)Sc2ccccc21,33.8 µM,38.3 µM,12.4 µM,28.4 µM,29.8 µM,29.4 µM,25.5 µM,21.7 µM
O=C(Nc1cccc(C(F)(F)F)c1)O/N=C(/Cl)CCl,> 100 µM,> 100 µM,,> 100 µM,> 100 µM,> 100 µM,> 100 µM,
C1CSCCCSCCSCCCSC1,,> 100 µM,> 100 µM,> 100 µM,> 100 µM,> 100 µM,> 100 µM,> 100 µM
CCOC(=O)/C(=C\c1ccc(N(C)C)cc1)S(=O)(=O)C(F)(F)C(F)(F)C(F)(F)C(F)(F)F,> 100 µM,> 100 µM,,> 100 µM,> 100 µM,> 100 µM,> 100 µM,> 100 µM
COc1cc(C2SCC(=O)N2c2ccc(-n3c(-c4ccccc4)nc4ccccc4c3=O)cc2)ccc1O (stereo unspecified),> 100 µM,> 100 µM,,> 100 µM,> 100 µM,> 100 µM,> 100 µM,> 100 µM
O=c1c(SSc2coc3cc(F)ccc3c2=O)coc2cc(F)ccc12,28.5 µM,66.5 µM,> 100 µM,77 µM,,43.3 µM,> 100 µM,36.3 µM
O=c1[nH]nc(-c2ccccc2)n1/N=C/c1c[nH]c2ccccc12,> 100 µM,75.6 µM,> 100 µM,> 100 µM,> 100 µM,> 100 µM,> 100 µM,> 100 µM
CC1(C)[C@@H](Cn2cnc3c(N)ncnc32)CC[C@@]1(C)CO,> 100 µM,> 100 µM,> 100 µM,> 100 µM,> 100 µM,> 100 µM,> 100 µM,> 100 µM
COc1cc(OC)c2c(O)c3c(cc2c1)CC(C)(C)CC3=O,> 100 µM,> 100 µM,> 100 µM,> 100 µM,> 100 µM,> 100 µM,> 100 µM,> 100 µM
CC(C)[C@@H]1CC[C@@H](C)C[C@H]1OC(=O)/C=C1/C2C=CC(O2)C1C(=O)O[C@@H]1C[C@H](C)CC[C@H]1C(C)C (stereo partly specified),> 100 µM,> 100 µM,> 100 µM,> 100 µM,> 100 µM,> 100 µM,> 100 µM,> 100 µM
CN(C)c1nc(NC23CC4CC(CC(C4)C2)C3)nc(N(C)C)n1,> 100 µM,> 100 µM,17.7 µM,> 100 µM,> 100 µM,> 100 µM,> 100 µM,> 100 µM
CC(C)CCC[C@@H](C)[C@H]1CCC2C3CC=C4C[C@@H](Oc5c6ccccc6nc6ccccc56)CCC4C3CCC21 (stereo partly specified),> 50 µM,> 50 µM,> 50 µM,> 50 µM,> 50 µM,> 50 µM,> 50 µM,> 50 µM
CCOC(=O)Oc1cc2c(c(OC)c1OC)-c1ccc(SC)c(=O)cc1C(NC(=O)C(F)(F)F)CC2 (stereo unspecified),,,< 0.001 µM,37.9 µM,,0.0928 µM,,< 0.001 µM
Cc1ccc(S(=O)(=O)/N=C(\NN)Nc2ccc(Cl)cc2)cc1,> 100 µM,> 100 µM,> 100 µM,> 100 µM,> 100 µM,> 100 µM,> 100 µM,
NC(=O)c1nnc2cc(F)ccc2c1N,> 100 µM,> 100 µM,,> 100 µM,> 100 µM,> 100 µM,> 100 µM,> 100 µM
O=C(Nc1nc2c(=O)[nH]cnc2s1)c1ccccc1,,> 100 µM,> 100 µM,> 100 µM,> 100 µM,> 100 µM,> 100 µM,> 100 µM
COC(=O)c1cc(NC(=O)c2cc(NC(=O)c3cc([N+](=O)[O-])cn3C)cn2C)cn1C,> 100 µM,94.7 µM,> 100 µM,,> 100 µM,> 100 µM,> 100 µM,> 100 µM
NNc1nc2ccccc2c(=O)n1NC(=O)C(=O)Nc1cccc(C(F)(F)F)c1,> 100 µM,> 100 µM,> 100 µM,> 100 µM,> 100 µM,> 100 µM,,> 100 µM
COc1cc2c(c(OC)c1OC)-c1ccc(SC)c(=O)cc1[C@@H](OC(C)=O)CC2,> 48.5 µM,> 100 µM,> 100 µM,> 100 µM,> 100 µM,> 100 µM,> 100 µM,
CC(C)C(C/C=C1\CC(CO)(COC(=O)c2ccccc2)OC1=O)C(C)C (stereo unspecified),35.6 µM,34.2 µM,45.4 µM,70.6 µM,35.6 µM,33.8 µM,,> 100 µM
Cc1ccsc1/C=N/Nc1cc(C)c2cccc(C)c2n1,> 100 µM,> 100 µM,,> 100 µM,> 100 µM,> 100 µM,> 100 µM,> 100 µM
CCCCCC(=O)N[C@@H](c1ccccc1)C(O)C(=O)OC1C[C@@]2(O)C(OC(=O)c3ccccc3)C3[C@](C)(C(=O)[C@H](O)C(=C1C)C2(C)C)C(OC1OCC(O)C(O)C1O)C[C@H]1OC[C@@]31OC(C)=O (stereo partly specified),> 38.3 µM,> 100 µM,> 41 µM,> 100 µM,> 100 µM,,13.4 µM,1.78 µM
CN(C(=O)Cc1ccc(Cl)c(Cl)c1)[C@H]1CCCC[C@@H]1[N+]1(C)CCCC1,> 100 µM,> 100 µM,,> 100 µM,> 100 µM,> 100 µM,> 100 µM,> 100 µM
CC(C)SC(C)(NC(=O)C1C(C)(C)CCC1(C)C)C(=O)O (stereo unspecified),,> 100 µM,,,,,> 100 µM,> 100 µM
COc1ccc(S(=O)(=O)O)cc1-n1nc(C(=O)Nc2ccccc2)n[n+]1-c1cc(S(=O)(=O)[O-])ccc1OC,> 100 µM,> 100 µM,> 100 µM,,> 100 µM,> 100 µM,> 100 µM,> 100 µM
